The values that follow come from patent US9096601B2 (CSPC Zhongqi Pharmaceutical Technology (Shijiazhuang) Co., …, priority 2010, dated 2015).

Series [1] deals with non-small cell lung carcinoma cell strain H292 (EGFR WT). The series can be described thus: In-vitro tumor cell proliferation inhibition, MTT. The series is classed as cell-based, human. The note with it: 72 hours.
Series [2] has as its system non-small cell lung carcinoma cell strain HCC827. In words: In-vitro tumor cell proliferation inhibition, MTT. The series is classed as cell-based, human. The settings on record: 72 hours. An outline of the steps: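 Cells grown in RPMI-1640 with 10% FBS, seeded overnight (HCC827 at 6×10^4 cells/ml), then exposed to graded compound concentrations for 72 h at 37 °C, 5% CO2, with 1% DMSO solvent control. MTT absorbance at 570 nm; inhibition relative to control; triplicate wells, ≥3 repeats.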

For series [3], the system named is non-small cell lung carcinoma cell strain PC-9 (EGFR delE746-A750 deletion mutation). In words: In-vitro tumor cell proliferation inhibition, MTT. The series is classed as cell-based, human. The settings on record: 72 hours.
For series [4], the system named is non-small cell lung carcinoma cell strain H1975 (EGFR L858R/T790M mutation). The series can be described thus: In-vitro tumor cell proliferation inhibition, MTT. The series is classed as cell-based, human. The note with it: 72 hours.
The test system of series [5] is human non-small cell lung carcinoma cell strain HCC827. The series can be described thus: In-vivo anti-tumor test, nude mouse subcutaneously transplanted non-small cell lung carcinoma model. The note with it: nude mice, intragastric. An excerpt:
The object of this assay was to determine the in-vivo anti-tumor effect of the present compound. In this assay, a nude mouse subcutaneously transplanted non-small cell lung carcinoma model was used to test the present compound 8-10 for the in-vivo anti-tumor activity. The used cell strain was human non-small cell lung carcinoma cell strain HCC827.
BALB/C nude mice, aged 6-8 weeks, were inoculated with HCC827 cell subcutaneously at the posterior segment of rib in a concentration of about 5×10^6 cells/0.1 ml per mouse. Upon the growth of the tumor up to 200-300 mm^3 (about 20 days), mice were grouped (n=6) and administrated intragastrically.
(§1) Observation Indices: the mice were measured every three days for the weight, and the length and width of tumor, and the tumor volume was calculated as length×width^2×0.52. […] 3. Results

In series [6] the test system is chronic granulocytic leukemia cell strain K562. In words: In-vitro tumor cell proliferation inhibition, MTT. The series is classed as cell-based, human. The note with it: 72 hours.
For series [7], the system named is breast carcinoma cell strain BT474. The series can be described thus: In-vitro tumor cell proliferation inhibition, MTT. The series is classed as cell-based, human. The note with it: 72 hours. An outline of the steps: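 MTT colorimetric proliferation test: plated cells exposed 72 h to compound dilution series, DMSO 1% solvent control included. A570 gave inhibition relative to drug-free control; IC50 or inhibitory rate from at least three experiments. HCC827 and BT474 grown in RPMI-1640, A431 and SW620 in DMEM, both with 10% FBS.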

Series [8] concerns gastric cancer cell strain MK-45. In words: In-vitro tumor cell proliferation inhibition, MTT. The settings on record: 72 hours, read-out: MK45 (IC50). The series is classed as cell-based, human.
Series [9] concerns colon cancer cell strain HCT116. In words: In-vitro tumor cell proliferation inhibition, MTT. The settings on record: 72 hours. The series is classed as cell-based, human.
The subject of series [10] is liver cancer cell strain Hep G2. The series can be described thus: In-vitro tumor cell proliferation inhibition, MTT. The series is classed as cell-based, human. The settings on record: 72 hours, read-out: HEPG2 (IC50).
For series [11], the system named is breast carcinoma cell strain MDA-MB-468. In words: In-vitro tumor cell proliferation inhibition, MTT. The series is classed as cell-based, human. The note with it: 72 hours.
Series [12] relates to acute myelogenous leukemia cell strain MV4-11. The series can be described thus: In-vitro tumor cell proliferation inhibition, MTT. The series is classed as cell-based, human. The settings on record: 72 hours.
Series [13] concerns human acute myelogenous leukemia cell strain MV4-11. In words: In-vivo anti-tumor test, NOD-SCID mouse subcutaneously transplanted human leukemic solid tumor model. The note with it: NOD-SCID mice, intragastric.
Excerpt: The object of this assay was to determine the in-vivo anti-tumor effect of the present compound. In this assay, a NOD-SCID mouse subcutaneously transplanted human leukemic solid tumor model was used to test the present compound 8-29 for the in-vivo anti-tumor activity. The used cell strain was human acute myelogenous leukemia cell strain MV4-11.
NOD-SCID mice, aged 6-8 weeks, were inoculated with MV4-11 cell subcutaneously at the posterior segment of rib in a concentration of about 1×10^7 cells/0.1 ml per mouse. Upon the growth of the tumor up to 400-500 mm^3 (about 20 days), mice were grouped (n=6) and administrated intragastrically.
as §1

The IC50 is the concentration at which inhibition is half-maximal.

In the case of `CC(C)n1c(Nc2ccccc2)nc2cnc(Nc3ccc(N4CCN(C)CC4)cc3)nc21` [Compounds 8-10], the IC50 in series [1] came out at 10.5 nM; in [2], 0.1 nM; in [3] it was 0.9 nM; in series [4], 2000 nM; in series [6], 106 nM; in [7], 226 nM. Besides, the IC50 is greater than 1000 nM in series [8]; 1090 nM in series [9]; 4800 nM in [10]; 700 nM in [11]; 102 nM in series [12]. In addition, the “in-vivo tumor growth inhibition” value in [5] (HCC827 xenograft, 2 mg/kg q.d. or higher (2, 5, 10, 20 mg/kg q.d.)) is reported as “substantial in-vivo growth inhibition”. Also, the “toxicity (untoward reactions: weight reduction, exanthema, diarrhea)” value in [5] (2-20 mg/kg q.d.) is “low toxicity”.
Consider `CC(C)n1c(Nc2ccc(C(F)(F)F)cc2)nc2cnc(Nc3ccc(N4CCN(C)CC4)cc3)nc21` [Compounds 8-27], for which the IC50 in [1] is 4190 nM; in [2], 82.3 nM; in [3] it was 115 nM; in series [4], greater than 10000 nM; in series [6], 777 nM; in series [7] it was 1180 nM. Further, the IC50 in [8] is 6110 nM; in series [9], greater than 1000 nM; in [10], greater than 1000 nM; in series [11], 1960 nM; in series [12], 88 nM.
Take `CC(C)n1c(Nc2cccnc2)nc2cnc(Nc3ccc(N4CCN(C)CC4)cc3)nc21` [Compounds 8-29]: the IC50 in series [1] was 180 nM; in [2] it was 7.2 nM; in series [3] it was 10 nM; in series [4] it was greater than 10000 nM; in series [6] it was 240 nM; in series [7], 2260 nM. Besides, the IC50 is 8170 nM in [8]; 2480 nM in [9]; greater than 10000 nM in series [10]; 8120 nM in [11]; 4 nM in series [12]. For the same compound, the “in-vivo tumor growth inhibition” value in series [13] (MV4-11 xenograft, 5 mg/kg q.d. or higher (5, 10, 20 mg/kg q.d.)) is on record as “substantial in-vivo growth inhibition”. Further, in series [13] (5-20 mg/kg q.d.), the “toxicity (untoward reactions: weight reduction, exanthema, diarrhea)” value is given as “low toxicity”.
Consider `CC(C)n1c(NC2CCCCC2)nc2cnc(Nc3ccc(N4CCN(C)CC4)cc3)nc21` [Compounds 8-30], for which the concentration for half-maximal inhibition (IC50) in series [1] is 201 nM; in [2] it was 483 nM; in [3], 55.1 nM; in [4], greater than 10000 nM; in [6] it was 5760 nM; in [7], 4460 nM. Further, the IC50 in series [8] is 5470 nM; in series [9] it was greater than 10000 nM; in series [10], greater than 10000 nM; in series [11], greater than 10000 nM; in [12], 7960 nM.
Consider `C=CC(=O)Nc1cccc(Nc2ncc3nc(Nc4ccccc4)n(C(C)C)c3n2)c1` [Compounds 8-38], for which the IC50 in series [1] was found to be 7.3 nM; in series [2], 0.5 nM; in series [3] it was 0.7 nM; in series [4], 644 nM; in series [6], 268 nM; in [7], 1680 nM. Further, the half-maximal inhibitory concentration (IC50) in [8] stood at 1790 nM; in series [9], 443 nM; in [10] it was 2900 nM; in [11] it was 280 nM; in series [12] it was 730 nM.
